# Reference: US9308210B2, “Method for modulating canonical Wnt pathway using folate and inositol” (University of South Florida, priority 2009, dated 2016)
# Where a name gives a salt, the structure may show the parent alone.
# Tests used:
# [1] = test system: Acadm and Acadl gene expression; test: RT-PCR of Acadm and Acadl in E7.5 embryos and E15.5 hearts; format: in vivo, mouse; details: for Acadm expression: E15.5 hearts, versus control hearts
# From the text: The gene expression data were validated by RT-PCR in mouse embryos at both E 7.5 (a half day after exposure) and at E15.5 and by in situ hybridization for tissue localization analyses. The inventors chose E 7.5 to determine early gestational changes in gene expression and to define whether these expression changes were maintained during pregnancy to E 15.5. Digoxigenin labeled probes and alkaline phosphatase secondary antibody detection for in situ hybridization were used (Roche, Inc., Indianapolis, Ind.).
# [2] = test system: neutral lipid droplets in heart and placenta; test: Oil Red O staining of neutral lipid droplets in E15.5 heart and placenta; format: in vivo, mouse; details: for ORO neutral lipid localization in the placenta: labyrinth and maternal decidua
# From the text: Oil Red O (ORO), a fat soluble dye, was used to detect neutral lipids (triglycerides, diacylglycerols, and cholesterol esters) in cryosectioned E15.5 cardiac and placental tissues. The staining methodology was followed as published. This method estimates tissue lipid content and localization (Mehlem et al., 2013). Lipid droplets stain red and nuclei blue. Polar lipids (phospholipids, sphingolipids and ceramides) are not stained (Fowler and Greenspan, 1985).
# [3] = test system: chick embryos; test: Early embryonic chick culture: heart development (MF20) after HCy, Li or Wnt3A exposure, FA/inositol rescue; format: in vivo, chick (Gallus gallus); details: for % Normal Hearts / Abnormal (number of embryos) / Normal (number of embryos): HCy 50 μM, FA 10 μM
# Procedure: Pathogen-free White Leghorn chick (Gallus gallus; Charles River, Mass.) and quail (Coturnix coturnix japonica; Strickland Farms, Ga.) embryos were used to analyze the effects of HCy on early embryogenesis. The early processes of heart development are well conserved among vertebrates and the avian model allows for more precise timing of exposure in early embryos. The incubation methodology using agarose-albumin has been described previously (Darnell and Schoenwolf, 2000). Briefly, the experimental paradigm involved exposing specific early stages of chick embryos, at HH stages 4 to 7 (Hamburger and Hamilton, 1951), to different concentrations of HCy (L-homocysteine thiolactone hydrochloride, Sigma) made up in physiological saline. Final concentrations of HCy included 30 μM, 50 μM, 75 μM and 100 μM. The minimal teratogenic dose was determined empirically to be 50 μM. This fit within the concentration range of 30 μM to 300 μM used by others that induced heart defects at later stages of development (Boot et al., 2004). Control embryos were incubated using the vehicle, physiological saline, in the agarose-albumin medium. Control and experimental cultures were incubated on the agarose-albumin plates for either 8 or 24 hours.
# Carrier-free, recombinant mouse Wnt3A was purchased from R&D Systems (Minneapolis, Minn.). Wnt3A concentrations were empirically tested to find those that would induce cardiac defects but maintain embryonic viability. Wnt3A was tested at concentrations of 2 ng, 10 ng, 20 ng, 50 ng and 100 ng per ml. Concentrations of 2 ng/ml and 10 ng/ml were both effective in inducing cardiac defects. Both Wnt3A concentrations were used in the FA rescue experiments, as described. For the FA rescue experiments, folate (folic acid, Sigma-Aldrich) was added at a concentration of 2 μg, 5 μg or 10 μg per ml. […] For the experiments using inositol (myo-inositol, Sigma) supplementation, a concentration of 50 mg/ml was used.
# The main embryonic defects related to the timing of embryonic exposure; the regions that were primarily affected related to an anterior-to posterior (AP) wave of development along this embryonic axis. The exposure effects ranged from early effects (e.g. no cardiac tissue, heart development occurring anterior to neural tissue, cardiabifida) to later effects, such as wide hearts and left looping (Table 1). The cardiac phenotypes observed with early HCy exposure were similar, although not identical, to those obtained from previous studies of Li exposure on avian heart development (Manisastry et al., 2006). The Wnt/β-catenin modulated genes Hex and Isl1 in the chick embryo also were similarly repressed with HCy, as with Li in the chick cardiogenic region. […] Investigation of regulatory gene activity in chick embryos indicates Li, HCy and Wnt3A suppress Wnt-modulated genes Hex and Islet-1 in the heart fields.
# To define the effective dose of Wnt3A needed to induce cardiac dysmorphogenesis, Wnt3A was tested at concentrations of 2 ng, 10 ng, 20 ng, 50 ng, and 100 ng per ml. The minimal effective doses of Wnt3A that induced cardiac and neural anomalies were 2 ng/ml and 10 ng/ml, respectively. Using these concentrations, the inventors analyzed whether FA supplementation of media at 10^3-fold higher concentrations, that is 2 μg/ml or 10 μg/ml, would provide protection against the augmentation of canonical Wnt3A signaling.
# [4] = test system: Hex and Islet-1 (Isl1) gene expression; test: In situ hybridization of Hex and Isl1 in avian heart fields after Li, HCy or Wnt3A with or without FA; format: in vivo, chick
# Procedure: In situ hybridizations on control and experimentally manipulated chick embryos were carried out using digoxigenin-labeled riboprobes with alkaline phosphatase detection (Linask et al., 2001). Images of whole-mounted chick embryos were taken with a Nikon DS-L2 camera unit. Probes for chick Hex were provided by Parker Antin, University of Arizona and probes for chick Islet-1 (Isl1) were provided by Thomas Jessell, Columbia University, NY.
# Chick embryos (HH stages 3+/4) were incubated on agarose albumin supplemented with HCy (50 μM). Instead of giving a single injection in ovo, embryos were exposed to HCy for 8 hours in order to define the effect on early cardiac gene expression. Another group of embryos were exposed to HCy for 24 hours at which time the effects on gene expression were determined. To analyze the effects during the looping stages, incubation was stopped after between 22 and 24 hours. After the 8-hour incubation, Li and HCy suppressed Hex and Isl1 expression in the cardiogenic crescent (FIG. 5).
# The inventors next analyzed whether FA rescues the downregulation of Hex and Isl1. Chick embryos were exposed to Li, HCy or Wnt3A, as above, with and without 10 μg/ml of FA; the experiments were terminated after either an 8-hour or 24-hour exposure period, at which time in situ hybridizations for gene expression were performed. After 8 hours of exposure, Li, HCy and Wnt3A all suppressed Hex (FIGS. 9D, G, J) and Isl1 (FIGS. 10D, G, J) compared with the control embryonic expression patterns (FIG. 9A; FIG. 10A). […] Thus, FA supplementation suppressed the potentiation of the inhibitory Wnt signaling, allowing for normal induction of Hex and Isl1 gene expression.
# [5] = HH stage 3 +/4, Li 50 μM, inositol 280 mM
# [6] = 50 μM HCy, early embryonic chick model
# [7] = White Leghorn, chick, in vivo, 50 μM
compound,measurement,setting,value
"Nc1nc2ncc(CNc3ccc(C(=O)N[C@@H](CCC(=O)O)C(=O)O)cc3)nc2c(=O)[nH]1 [FA, folic acid]",Acadm expression,[1],returned the expression close to control levels
same,ORO neutral lipid localization in the placenta,[2],more normal organization of labyrinth
same,% Normal Hearts,[3]; [5],55%
same,Abnormal (number of embryos),[3]; [5],5
same,Normal (number of embryos),[3]; [5],6
same,% Normal Hearts,"[3]; HH stage 3 +/4, Li 50 μM, inositol 280 mM, listed as FA only",55%
same,heart development (MF20),[3]; in vivo,normal heart development
same,Hex and Isl1 gene expression with FA supplementation,"[4]; embryos exposed to Li, HCy or Wnt3A, FA 10 μg/ml, 8 hours",normalized gene expression patterns
same,heart formation and Hex/Isl1 expression with FA supplementation,"[4]; embryos exposed to Li, HCy or Wnt3A, FA 10 μg/ml, 24 hours",normal beating hearts had formed
"N[C@H]1CCSC1=O [HCy, L-homocysteine thiolactone hydrochloride]",Acadm/Acadl gene expression,"[1]; E7.5, versus control embryos, FA from morning after conception",slightly down-regulated
same,Acadm expression,[1],upregulation
same,ORO staining of neutral lipids in the heart,[2],did not alter ORO staining in the trabeculae
same,ORO neutral lipid localization in the placenta,[2],patch-like neutral lipid localization
same,"Dead, Frequency",[3]; [6],6
same,"Dead, Percent",[3]; [6],5.6%
same,Abnormal (number of embryos),[3]; [5],100
same,Normal (number of embryos),[3]; [5],28
same,% Normal Hearts,"[3]; HH stage 3 +/4, Li 50 μM, inositol 280 mM, hydrochloride",22%
same,Abnormal (number of embryos),[3]; HH stage 5,50
same,Normal (number of embryos),[3]; HH stage 5,24
same,% Normal Hearts,"[3]; HH stage 5, hydrochloride",32%
same,minimal teratogenic dose,"[3]; White Leghorn, chick, in vivo",50 µM
same,"Cardiabificla, Frequency",[3]; [7],11
same,"Cardiabificla, Percent",[3]; [7],10.2%
same,"Delayed development, Frequency",[3]; [7],2
same,"Delayed development, Percent",[3]; [7],1.9%
same,"Heart above head, Frequency",[3]; [7],18
same,"Heart above head, Percent",[3]; [7],16.7%
same,"Heart close midline, Frequency",[3]; [7],15
same,"Heart close midline, Percent",[3]; [7],13.9%
same,"Left looping, Frequency",[3]; [7],11
same,"Left looping, Percent",[3]; [7],10.2%
same,"Tubular heart, Frequency",[3]; [7],3
same,"Tubular heart, Percent",[3]; [7],2.8%
same,"Very abnormal (or no hearts), Frequency",[3]; [7],18
same,"Very abnormal (or no hearts), Percent",[3]; [7],16.7%
same,"Wide heart, Frequency",[3]; [7],24
same,"Wide heart, Percent",[3]; [7],22.2%
same,development after exposure at HH stages 6 and 7,[3]; in vivo,normal development
same,Hex and Isl1 expression in the cardiogenic crescent,"[4]; 8 hours of exposure, HH stages 3+/4",suppressed
same,Isl1 gene expression,[4]; by 24 hours of Li or HCy exposure,recovered
